The test system of series [1] is dopamine D4 receptor. The note with it: literature; cited from earlier work.
Series [2] has as its system schizophrenia. The settings on record: clinical, literature, cited from earlier work.
The conditions of series [3]: literature; cited from earlier work.
Series [4] concerns the target T1, human D4.2 receptor (Homo sapiens, UniProt P21917, DEL265-296).
T1 construct: expressed in transfected cells; host or cells: Chinese hamster ovary (CHO) cells, membranes
T1 sequence (P21917 with tags, fused parts or gaps DEL265-296): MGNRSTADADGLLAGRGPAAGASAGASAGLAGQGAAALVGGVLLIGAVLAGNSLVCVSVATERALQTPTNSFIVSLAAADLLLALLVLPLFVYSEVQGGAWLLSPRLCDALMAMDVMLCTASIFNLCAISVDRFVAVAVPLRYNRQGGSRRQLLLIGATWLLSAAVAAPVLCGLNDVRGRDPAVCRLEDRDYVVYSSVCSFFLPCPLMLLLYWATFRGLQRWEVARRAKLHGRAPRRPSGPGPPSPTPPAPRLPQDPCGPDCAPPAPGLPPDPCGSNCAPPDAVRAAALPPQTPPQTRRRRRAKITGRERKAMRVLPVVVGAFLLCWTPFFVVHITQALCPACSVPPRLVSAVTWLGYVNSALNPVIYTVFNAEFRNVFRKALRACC
As to the kind of experiment: Dopamine D4 receptor binding test ([3H] spiperone). The settings on record: human D4.2 receptor in CHO cell membrane; [3H] spiperone 0.5 nM; 2 hours at 27° C., pH 7.4. The method, then: 1. Dopamine D4 receptor binding test
Chinese hamster ovary (CHO) cell membrane, in which human D4.2 receptor was expressed, was used as a receptor sample.
[^3 H] Spiperone was used as a [^3 H]-labeled ligand.
The binding reaction using the [^3 H]-labeled ligand was carried out by the following method described in Eur. J. Pharmacol., 233, 173 (1993).
Human D4.2 receptor binding test: The CHO cell membrane, in which human D4.2 receptor has been expressed, [^3 H] spiperone (0.5 nM) and each test compound were allowed to undergo 2 hours of reaction at 27° C. in 50 mM Tris-HCl buffer (pH 7.4) containing 5 mM EDTA, 1.5 mM CaCl2, 5 mM KCl and 120 mM NaCl.
After completion of the reaction, the reaction solution was filtered by suction through a glass filter (GF/B), and radioactivity on the filter paper was measured using a liquid scintillation spectrometer.
The binding when the reaction was carried out in the presence of 10 μM haloperidol was defined as non-specific binding of [^3 H] spiperone, and the difference between total binding and non-specific binding was defined as specific binding. An inhibition curve was obtained by allowing a fixed concentration of [^3 H] spiperone to react with varied concentration of each compound to be tested under the aforementioned conditions, and the concentration of each test compound which inhibits 50% of the [^3 H] spiperone binding (IC50) was calculated from the inhibition curve, with the results shown in Table 3.

Series [5] has as its target Dopamine D2 receptor (Rattus norvegicus, UniProt P61169). As to the kind of experiment: Dopamine D2 receptor binding test ([3H] raclopride). The settings on record: rat striate body membrane; [3H] raclopride 1 nM; 1 hour at 25° C.

The values that follow come from patent US6166033A, “2-carbonylthiazole derivatives and use of the same” (priority 1996, dated 2000).

Counter-ions that a name gives are not always drawn.

Sequence of Dopamine D2 receptor (P61169 whole entry): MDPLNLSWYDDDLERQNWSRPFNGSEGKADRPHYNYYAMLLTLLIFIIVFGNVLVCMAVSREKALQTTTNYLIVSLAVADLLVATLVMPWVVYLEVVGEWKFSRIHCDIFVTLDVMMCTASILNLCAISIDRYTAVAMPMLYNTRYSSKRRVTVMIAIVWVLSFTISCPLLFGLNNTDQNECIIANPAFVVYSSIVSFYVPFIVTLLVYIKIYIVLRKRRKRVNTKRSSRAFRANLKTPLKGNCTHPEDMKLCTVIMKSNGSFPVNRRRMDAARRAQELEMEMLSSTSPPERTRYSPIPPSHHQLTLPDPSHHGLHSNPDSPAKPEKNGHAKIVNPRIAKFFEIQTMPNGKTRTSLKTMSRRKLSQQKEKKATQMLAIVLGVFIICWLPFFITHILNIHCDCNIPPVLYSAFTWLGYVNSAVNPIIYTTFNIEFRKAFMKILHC

In the case of `CN1CCN(C2=Nc3cc(Cl)ccc3Nc3ccccc32)CC1` [Clozapine], the “affinity for dopamine D4 receptor relative to dopamine D2 receptor” value in series [1] was “higher than its affinity for dopamine D2 receptor”. In addition, the efficacy in schizophrenia entry in series [2] is “effective in drug-resistant schizophrenia and negative symptoms”. Further, in series [2] (unlike dopamine D2 receptor antagonists), the extrapyramidal disorders result is reported as “causes less extrapyramidal disorders”. Further, the hemotoxicity result in series [3] was “generates a hemotoxin as agranulocytosis which resulted in certain mortal cases”.

The IC50 is the concentration that gives 50% inhibition. On to `NC(=O)c1nc(-c2ccc(F)cc2)c(CCN2CCC(=Cc3ccc(F)cc3)CC2)s1` [Compound A-02], for which the results for the IC50 in series [4] and in series [5] were 5.46 nM and not below 1000 nM, respectively.

Take `CCOC(=O)c1nc(-c2ccc(F)cc2)c(CCN2CCC(=Cc3cccc(F)c3)CC2)s1` [Compound A-09, 2-ethoxycarbonyl-4-(4-fluorophenyl)-5-[2-[4-(3-fluorobenzylidene)piperidin-1-yl]ethyl]thiazole hydrochloride]: the IC50 is 13.9 nM in series [4] and more than 1000 nM in series [5].

As for `NC(=O)c1nc(-c2ccc(F)cc2)c(CCN2CCC(=Cc3cccc(F)c3)CC2)s1` [Compound A-10, 2-carbamoyl-4-(4-fluorophenyl)-5-[2-[4-(3-fluorobenzylidene)piperidin-1-yl]ethyl]thiazole], the results for the IC50 in series [4] and in series [5] were 4.53 nM and 559 nM, respectively.

For the compound `O=C(O)c1nc(-c2ccc(F)cc2)c(CCN2CCC(=Cc3cccc(F)c3)CC2)s1` [Compound A-11, 2-carboxylic acid-4-(4-fluorophenyl)-5-[2-[4-(3-fluorobenzylidene)piperidin-1-yl]ethyl]thiazole potassium salt], the IC50 in series [4] was 10.5 nM; in series [5], not below 1000 nM.

In the case of `NC(=O)c1nc(-c2ccc(F)cc2)c(CCN2CCC(=Cc3ccccc3)CC2)s1` [Compound A-13], the results for the IC50 in series [4] and in series [5] were 3.13 nM and 143 nM, respectively.

`Cc1ccc(C=C2CCN(CCc3sc(C(N)=O)nc3-c3ccc(F)cc3)CC2)cc1` [Compound A-15]: the IC50 in series [4] was found to be 18.3 nM; in series [5], 433 nM.

Consider `NC(=O)c1nc(-c2ccccc2)c(CCN2CCC(=Cc3ccc(F)cc3)CC2)s1` [Compound A-17], for which the figures for the IC50 in series [4] and in series [5] were 5.99 nM and 628 nM, respectively.

Take `Cc1ccc(-c2nc(C(N)=O)sc2CCN2CCC(=Cc3ccc(F)cc3)CC2)cc1` [Compound A-20]: the values for the IC50 in series [4] and in series [5] were 9.55 nM and 187 nM, respectively.

As for `CCOC(=O)c1nc(-c2ccc(F)cc2)c(CCN2CCC(C(=O)c3ccc(F)cc3)CC2)s1` [Compound A-21], the IC50 in series [4] is 3.43 nM; in series [5] it was more than 1000 nM.

Regarding `NC(=O)c1nc(-c2ccc(F)cc2)c(CCN2CCC(C(=O)c3ccc(F)cc3)CC2)s1` [Compound A-22], the results for the IC50 in series [4] and in series [5] were 3.13 nM and 72.2 nM, respectively.
